Assay: Franz skin diffusion cell permeation (percutaneous absorption) under ambient, natural or pulsed incoherent LED light

Ctrl (Table 7 (350 nm series), ambient light only) | Ctrl-TiO2 (Table 7 (350 nm series), ambient light, 2% TiO2) | Ctrl-TiO2/1.7 (Table 7, 350 nm series, 2% TiO2, 1.7 cps) | Ctrl-TiO2/9.7 (Table 7, 350 nm series, 2% TiO2, 9.7 cps) | Ctrl-TiO2/24 (Table 7, 350 nm series, 2% TiO2, 24 cps) | 350/1.7 (Table 7, 350 nm, 1.7 cps) | 350/9.7 (Table 7, 350 nm, 9.7 cps) | 350/24 (Table 7, 350 nm, 24 cps) | Permeation Dark (Dark control, ambient light absent) | Permeation Ctrl (ambient cool fluorescent light only, 260-750 nm, 120 cps) | Permeation Ctrl-TiO2 (ambient fluorescent light, sample with 2% (w/w) rutile TiO2) | Compound
0.00 | 0.00 | 42.75 | 6.48 | 0.00 | 3.33 | 0.00 | 0.00 |  |  |  | O=C1O[C@H]([C@@H](O)CO)C([O-])=C1OP(=O)([O-])[O-].[Na+].[Na+].[Na+] [Compound 2, Sodium ascorbyl phosphate]
 |  |  |  |  |  |  |  | 0.00 μg/0.64 cm^2/25 hrs | 0.00 μg/0.64 cm^2/25 hrs | 0.00 μg/0.64 cm^2/25 hrs | Cn1c(=O)c2c(ncn2CC(=O)O)n(C)c1=O [Compound 1, Theophylline-7 acetic acid]

Source: US7854753B2, “Photokinetic delivery of biologically active substances using pulsed incoherent light” (Photokinetix, Inc., priority 2002, dated 2010)
